The target of series [1] is T1, HLA-B*57:01fos (Homo sapiens, UniProt P01889, D201E/D98Y/E176V/E187L/E204Q/E69M/E70A/G107R/I90N/K202T/L105A/L119I/N104I/N87E/Q89R/Q94S/R106L/R155S/R180L/R86G/S101N/S121V/S35A/S48A/T118I/V36M/Y140S/Y91M).
T1 construct: Fos leucine zipper (C); made in house
Description: Fluorescence polarisation association rate measurements. The format is binding. Conditions: 25°C; for Effect of abacavir on binding of fluorescent peptide to HLA-B*57:01fos: 60 µM abacavir; for Effect of abacavir on binding of fluorescent peptide to HLA-B*57:01fos / Effect of tapasin on binding of fluorescent peptide to HLA-B*57:01fos / Effect of combined abacavir and tapasin on binding of fluorescent peptide to HLA-B*57:01fos: fluorescence polarisation; for Effect of tapasin on binding of fluorescent peptide to HLA-B*57:01fos: tapasin-jun or tapasin-jun ERp57 C60A conjugate; for Effect of combined abacavir and tapasin on binding of fluorescent peptide to HLA-B*57:01fos: 60 µM abacavir + tapasin-jun; for Intrinsic binding of fluorescent peptide to UV exposed HLA-B*57:01fos: peptide alone, fluorescence polarisation (mP). On the procedure: (§1) Peptide loaded HLA-B*57:01fos complexes were obtained as described ([50]) by refolding solubilised inclusion bodies of HLA-B*57:01fos heavy chains with human β 2m and UV-labile HLA-B57-conditional peptide ligand.
(§2) Fluorescence polarisation measurements were taken using a SpectraMax i3x Multi-Mode Microplate Reader (Molecular Devices) with rhodamine detection cartridge. All experiments were conducted at 25°C and used PBS supplemented with 0.5 mg/ml bovine-gamma-globulin (Sigma), and a 20 fold molar excess of human β 2m (Fitzgerald) in a volume of 60 µl. Binding of TAMRA-labelled peptides is reported in millipolarisation units (mP) and is obtained from the equation mP = 1,000 × (S – G × P)/(S + G × P), where S and P are background subtracted fluorescence count rates (S = polarisation emission filter is parallel to the excitation filter; P = polarisation emission filter is perpendicular to the excitation filter) and G (grating) is an instrument and assay dependent factor.
Peptide-receptive HLA-B*57:01fos were obtained by exposing HLA-B*57:01fos complexes loaded with UV labile conditional peptide ligand to ~360 nm light for 20 min at 4°C (“UV exposed” hereafter). The binding of fluorescent peptides to UV exposed HLA-B*57:01fos was monitored in the absence or presence of excess (60 µM) abacavir or tapasin-jun or tapasin-jun ERp57 C60A conjugate. […] Most experiments used 0.55 µM HLA-B*57:01fos molecules, but a minority of experiments involved different preparations of HLA-B*57:01fos which required higher concentrations of HLA-B*57:01fos, up to a maximum of 3.18 µM HLA-B*57:01fos, to achieve equivalent polarisation levels.
For orientation: Polarisation of emitted light reports the rotation of a fluorescent probe.

Series [2] addresses T1, HLA-B*57:01fos. Briefly: Fluorescence polarisation dissociation rate measurements. The following applies: for Effect of abacavir on dissociation of the peptide from HLA-B*57:01fos: 60 µM abacavir with competing peptide; for Half life (hours) of dissociation from HLA-B*57:01fos, Comp+Abacavir / Half life (hours) of dissociation from HLA-B*57:01fos, Comp+Tapasin / Half life (hours) of dissociation from HLA-B*57:01fos, Comp+Tapasin+Abacavir: as Comp; for Half life (hours) of dissociation from HLA-B*57:01fos, Comp+Abacavir: plus 60 µM abacavir; for Half life (hours) of dissociation from HLA-B*57:01fos, Comp+Abacavir / Half life (hours) of dissociation from HLA-B*57:01fos, Comp+Tapasin / Half life (hours) of dissociation from HLA-B*57:01fos, Comp+Tapasin+Abacavir / Half life (hours) of dissociation from HLA-B*57:01fos, Comp: fluorescence polarisation, 25°C, one-phase decay, plateau 50 mP (unconstrained for RVD), 3-4 replicates; for Half life (hours) of dissociation from HLA-B*57:01fos, Comp+Tapasin: plus conjugated tapasin-jun-ERp57 C60A (mostly 0.254 µM); for Half life (hours) of dissociation from HLA-B*57:01fos, Comp+Tapasin+Abacavir: plus tapasin-jun-ERp57 C60A and 60 µM abacavir; for Half life (hours) of dissociation from HLA-B*57:01fos, Comp: PBS + 0.5 mg/ml bovine-gamma-globulin, 20 fold excess human β2m, excess unlabelled competing peptide only; for Tapasin dependent enhancement of dissociation: tapasin-jun-ERp57 C60A with competing peptide; for Rate of dissociation from HLA-B*57:01fos (in words): competing peptide only. The format is binding. The procedure:
as §1, §2
HLA-B*57:01fos molecules were UV exposed and then allowed to bind fluorescent peptides overnight at room temperature. Florescence polarisation measurements were taken after the addition of excess non-labelled competitor peptide (otherwise identical to the labelled peptide) in the absence or presence of 60 µM abacavir or conjugated tapasin-jun-ERp57 C60A proteins. […] Most experiments used 0.55 µM HLA-B*57:01fos molecules, but some experiments involved different preparations of HLA-B*57:01fos which required higher concentrations of HLA-B*57:01fos, up to a maximum of 1.38 µM HLA-B*57:01fos, to achieve equivalent polarisation levels.
Supplementary Table 2. Dissociation rates of TAMRA-labelled peptides from HLA-B*57:01fos molecules. The rates at which the indicated peptides dissociated from HLA-B*57:01fos molecules in the presence of excess unlabelled competing peptide (“Comp”), abacavir and tapasin (data shown in figure 7) was measured by Graphpad Prism v9.1.0. The dissociation rates were calculated by performing non-linear regression, using the one-phase decay method, with plateaus constrained to be equal to 50 mP (apart from being unconstrained for RVD peptide). The number of experimental replicates, and the standard deviation in the measured dissociation rates across the replicates is also presented.

Series [3] addresses T2, HLA-B*57:01 (Homo sapiens, UniProt P01889, D201E/D98Y/E176V/E187L/E204Q/E69M/E70A/G107R/I90N/K202T/L105A/L119I/N104I/N87E/Q89R/Q94S/R106L/R155S/R180L/R86G/S101N/S121V/S35A/S48A/T118I/V36M/Y140S/Y91M). Briefly: LC-MRM-MS quantitation of HLA ligands and co-purified abacavir from abacavir treated C1R.B*57:01 cells. The format is cell-based.
Series [4] concerns the target T2, HLA-B*57:01. More on the design: method as in Illing et al., Nature 2012. Conditions: ref Illing et al., Nature 2012, cited from earlier work.
In another series the target is HLA-B*15:02 (Homo sapiens, UniProt P01889, A329T/A93T/A95T/C349S/D201E/D98Y/E187L/E204Q/E69M/E70A/H137Y/K202T/L119I/Q94N/R155S/R180L/S121R/S35A/S48A/T118I/V306I/V36M/Y140S/Y91S). Conditions: ref [20]–[22]; cited from earlier work.

On to ATFK*GIVRAI, for which, at HLA-B*57:01fos [1], the “Effect of abacavir on binding of fluorescent peptide to HLA-B*57:01fos” value (from here on “Effect of abacavir … to HLA-B*57:01fos”) is recorded as “less pronounced” and the “Effect of tapasin on binding of fluorescent peptide to HLA-B*57:01fos” value (“Effect of tapasin” below) is “only slightly enhanced binding”. In addition, at HLA-B*57:01fos [2], the “Effect of abacavir on dissociation of the peptide from HLA-B*57:01fos” value (from here on “Effect of abacavir … from HLA-B*57:01fos”) is “pronounced decrease in the dissociation”; the “Half life (hours) of dissociation from HLA-B*57:01fos, Comp+Abacavir” value (shortened to “Half life (hours) … Comp+Abacavir”) was determined as 71.63 h; the “Half life (hours) of dissociation from HLA-B*57:01fos, Comp+Tapasin” value was determined as 2.04 h; the “Half life (hours) of dissociation from HLA-B*57:01fos, Comp+Tapasin+Abacavir” value (“Half life (hours) … Comp+Tapasin+Abacavir” for short) stood at 33.59 h. Besides, the “Half life (hours) of dissociation from HLA-B*57:01fos, Comp” value at HLA-B*57:01fos [2] turned out to be 2.34 h.

Turning to KTFK*DVGNLL, on HLA-B*57:01fos [1], the “Effect of combined abacavir and tapasin on binding of fluorescent peptide to HLA-B*57:01fos” value (“Effect of combined abacavir and tapasin” below) was “occurred faster than in the presence of tapasin or abacavir alone”; the “Effect of abacavir … to HLA-B*57:01fos” value is on record as “binding strongly enhanced”; the “Intrinsic binding of fluorescent peptide to UV exposed HLA-B*57:01fos” value (from here on “Intrinsic binding of fluorescent peptide”) is reported as “limited intrinsic ability to bind”; the “Effect of tapasin” value is listed as “binding strongly enhanced”. On HLA-B*57:01fos [2], the “Effect of abacavir … from HLA-B*57:01fos” value was “pronounced decrease in the dissociation”; the “Half life (hours) … Comp+Abacavir” value was found to be 814.20 h; the “Half life (hours) … Comp+Tapasin+Abacavir” value worked out at 62.89 h; the “Half life (hours) of dissociation from HLA-B*57:01fos, Comp” value is 402.30 h. For the same molecule, the “Tapasin dependent enhancement of dissociation” value (“Tapasin dependent enhancement” for short) on HLA-B*57:01fos [2] is recorded as “significant”.

In the case of TSLK*SRVTI, at HLA-B*57:01fos [1], the “Effect of combined abacavir and tapasin” value is given as “occurred faster than in the presence of tapasin or abacavir alone”; the “Effect of abacavir … to HLA-B*57:01fos” value is “binding strongly enhanced”; the “Intrinsic binding of fluorescent peptide” value is on record as “limited intrinsic ability to bind”; the “Effect of tapasin” value is reported as “binding strongly enhanced”. Moreover, on HLA-B*57:01fos [2], the “Effect of abacavir … from HLA-B*57:01fos” value is “pronounced decrease in the dissociation”; the “Half life (hours) … Comp+Abacavir” value came to 22.41 h; the “Half life (hours) of dissociation from HLA-B*57:01fos, Comp+Tapasin” value stood at 5.12 h; the “Half life (hours) … Comp+Tapasin+Abacavir” value stood at 10.38 h. The “Half life (hours) of dissociation from HLA-B*57:01fos, Comp” value on HLA-B*57:01fos [2] was found to be 7.41 h.

With “VTKKTYEIW [non-labelled canonical HLA-B*57:01 ligand]”, the “Category of abacavir impact on peptide abundance in the immunopeptidome” value at HLA-B*57:01 [3] (C1R.B*57:01, 35 µM abacavir 0-16 h or constant, linear regression of normalised abundance, three replicates) was “Minimal”. In addition, at HLA-B*57:01 [3] (LC-MRM-MS detection, classification of the peptide based on abacavir dependency), the Abacavir dependence result was “Minimal”. The same molecule yielded a Linear regression slope at HLA-B*57:01 [3] (linear regression of LC-MRM-MS peptide abundance over abacavir treatment time) of 0.0161. Besides, the “Effect of abacavir … to HLA-B*57:01fos” value at HLA-B*57:01fos [1] is reported as “enhanced the binding”. On HLA-B*57:01 [4] (abacavir treated cells), the “HLA-B*57:01 previous observation by LC-MS/MS, Abacavir treated” value was “+ (+ (< 5% FDR))”. At HLA-B*57:01 [4] (untreated cells), the “HLA-B*57:01 previous observation by LC-MS/MS, Untreated” value is “+ (+ (< 5% FDR))”.

Turning to KVFK*LQTSL, the “Effect of tapasin” value on HLA-B*57:01fos [1] is recorded as “only slightly enhanced binding”. In addition, at HLA-B*57:01fos [2], the “Effect of abacavir … from HLA-B*57:01fos” value is listed as “pronounced decrease in the dissociation”; the “Half life (hours) … Comp+Abacavir” value is 51.83 h; the “Half life (hours) of dissociation from HLA-B*57:01fos, Comp+Tapasin” value is 1.06 h; the “Half life (hours) … Comp+Tapasin+Abacavir” value worked out at 2.47 h. Further, on HLA-B*57:01fos [2], the “Half life (hours) of dissociation from HLA-B*57:01fos, Comp” value came to 3.27 h and the “Tapasin dependent enhancement” value is listed as “significant”.

Consider NTVELRVK*I, for which, at HLA-B*57:01fos [1], the “Effect of tapasin” value is “did not affect the binding”. For the same molecule, on HLA-B*57:01fos [2], the “Effect of abacavir … from HLA-B*57:01fos” value was “pronounced decrease in the dissociation”; the “Half life (hours) … Comp+Abacavir” value was found to be 233.60 h; the “Half life (hours) of dissociation from HLA-B*57:01fos, Comp+Tapasin” value is 1.60 h; the “Half life (hours) … Comp+Tapasin+Abacavir” value worked out at 142.70 h. In addition, on HLA-B*57:01fos [2], the “Half life (hours) of dissociation from HLA-B*57:01fos, Comp” value was 2.67 h and the “Tapasin dependent enhancement” value is “minimal”.

As for “ITTKAISRW [canonical peptide ligand of HLA-B*57:01]”, the “Effect of abacavir … to HLA-B*57:01fos” value at HLA-B*57:01fos [1] is “enhanced the binding”.

In the case of RVDPAK*GLFYF, on HLA-B*57:01fos [1], the “Effect of combined abacavir and tapasin” value is given as “tapasin partially mitigated this effect”; the “Effect of abacavir … to HLA-B*57:01fos” value is listed as “enhanced by abacavir during the first hour”; the “Intrinsic binding of fluorescent peptide” value is “poor binding”. In addition, at HLA-B*57:01fos [2], the “Effect of abacavir … from HLA-B*57:01fos” value is recorded as “modestly enhanced”; the “Half life (hours) … Comp+Abacavir” value worked out at 0.26 h; the “Half life (hours) of dissociation from HLA-B*57:01fos, Comp+Tapasin” value was determined as 0.35 h; the “Half life (hours) … Comp+Tapasin+Abacavir” value was 0.26 h. On HLA-B*57:01fos [2], the “Rate of dissociation from HLA-B*57:01fos (in words)” value is “minutes” and the “Half life (hours) of dissociation from HLA-B*57:01fos, Comp” value was 0.31 h.

With `NC(=O)N1c2ccccc2C=Cc2ccccc21` [carbamazepine], at HLA-B*15:02, the “Odds ratio of hypersensitivity reaction with HLA-B*15:02” value was over 500.

“VTKK*TYEIW [TAMRA labelled canonical HLA-B*57:01 peptide]”: on HLA-B*57:01fos [1], the “Effect of combined abacavir and tapasin” value is on record as “did not enhance the binding”; the “Intrinsic binding of fluorescent peptide” value is “bound to HLA-B*57:01 molecules”; the “Effect of tapasin” value is “catalysed binding of the VTK and ITT peptides to a greater extent than abacavir”. In addition, on HLA-B*57:01fos [2], the “Effect of abacavir … from HLA-B*57:01fos” value is “minimal impact on the dissociation”; the “Half life (hours) … Comp+Abacavir” value is 373.30 h; the “Half life (hours) of dissociation from HLA-B*57:01fos, Comp+Tapasin” value amounted to 207.90 h; the “Half life (hours) … Comp+Tapasin+Abacavir” value is 198.40 h. Besides, at HLA-B*57:01fos [2], the “Rate of dissociation from HLA-B*57:01fos (in words)” value is listed as “hundreds of hours” and the “Half life (hours) of dissociation from HLA-B*57:01fos, Comp” value is 374.80 h.

The values above are taken from PMC8170132, “Kinetics of Abacavir-Induced Remodelling of the Major Histocompatibility Complex Class I Peptide Repertoire” (Frontiers in Immunology, 2021).
